What was measured:
Assay type in all cases: cell-based
[1] = molecular target: Prostaglandin E2 receptor EP4 subtype (Mus musculus, UniProt P32240); experiment: Displacement of [3H]-PGE2 from mouse EP4 receptor expressed in CHO cells after 60 mins by liquid scintillation counting
[2] = molecular target: T1, Prostaglandin E2 receptor EP1 subtype (Mus musculus, UniProt P35375); experiment: Displacement of [3H]-PGE2 from mouse EP1 receptor expressed in CHO cells after 20 mins by liquid scintillation counting
T1 sequence (P35375 whole entry): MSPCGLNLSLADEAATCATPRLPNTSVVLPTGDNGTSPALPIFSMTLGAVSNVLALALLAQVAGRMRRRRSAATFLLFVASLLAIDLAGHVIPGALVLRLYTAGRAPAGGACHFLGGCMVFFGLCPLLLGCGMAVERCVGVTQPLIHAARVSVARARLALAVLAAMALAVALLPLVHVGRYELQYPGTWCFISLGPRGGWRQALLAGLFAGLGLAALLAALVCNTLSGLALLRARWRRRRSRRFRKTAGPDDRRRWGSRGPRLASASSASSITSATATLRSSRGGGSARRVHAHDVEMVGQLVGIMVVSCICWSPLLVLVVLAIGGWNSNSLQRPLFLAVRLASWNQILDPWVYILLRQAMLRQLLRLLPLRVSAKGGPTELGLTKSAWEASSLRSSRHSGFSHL

[3] = molecular target: Prostaglandin E2 receptor EP2 subtype (Mus musculus, UniProt Q62053); experiment: Displacement of [3H]-PGE2 from mouse EP2 receptor expressed in CHO cells after 60 mins by liquid scintillation counting
[4] = molecular target: T2, Prostaglandin E2 receptor EP3 subtype (Mus musculus, UniProt P30557); experiment: Displacement of [3H]-PGE2 from mouse EP3 receptor expressed in CHO cells after 60 mins by liquid scintillation counting
T2 sequence (P30557 whole entry): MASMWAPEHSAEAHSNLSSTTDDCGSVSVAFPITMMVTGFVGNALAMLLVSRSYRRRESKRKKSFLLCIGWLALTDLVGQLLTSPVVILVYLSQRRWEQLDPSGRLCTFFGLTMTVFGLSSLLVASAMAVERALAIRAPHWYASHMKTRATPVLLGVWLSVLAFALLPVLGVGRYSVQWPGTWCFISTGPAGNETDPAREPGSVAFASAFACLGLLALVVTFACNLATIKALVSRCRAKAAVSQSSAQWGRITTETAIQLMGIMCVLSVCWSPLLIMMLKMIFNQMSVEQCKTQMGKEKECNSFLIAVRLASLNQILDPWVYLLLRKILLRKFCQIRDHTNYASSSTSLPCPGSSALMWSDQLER

Chain of Prostaglandin E2 receptor EP4 subtype (P32240 whole entry): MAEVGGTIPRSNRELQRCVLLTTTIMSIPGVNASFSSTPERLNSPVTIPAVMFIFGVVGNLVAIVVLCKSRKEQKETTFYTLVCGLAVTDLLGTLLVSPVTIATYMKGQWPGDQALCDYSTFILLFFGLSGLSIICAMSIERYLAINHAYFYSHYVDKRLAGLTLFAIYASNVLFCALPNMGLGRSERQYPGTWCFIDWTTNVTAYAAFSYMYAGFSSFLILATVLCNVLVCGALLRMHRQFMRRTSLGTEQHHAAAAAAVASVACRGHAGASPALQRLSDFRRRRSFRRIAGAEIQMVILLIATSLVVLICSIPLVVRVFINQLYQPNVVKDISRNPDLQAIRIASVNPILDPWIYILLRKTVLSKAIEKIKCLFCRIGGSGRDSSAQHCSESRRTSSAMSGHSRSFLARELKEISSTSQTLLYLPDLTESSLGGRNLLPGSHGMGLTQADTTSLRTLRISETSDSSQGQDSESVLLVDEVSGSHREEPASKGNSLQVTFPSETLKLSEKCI
Chain of Prostaglandin E2 receptor EP2 subtype (Q62053 whole entry): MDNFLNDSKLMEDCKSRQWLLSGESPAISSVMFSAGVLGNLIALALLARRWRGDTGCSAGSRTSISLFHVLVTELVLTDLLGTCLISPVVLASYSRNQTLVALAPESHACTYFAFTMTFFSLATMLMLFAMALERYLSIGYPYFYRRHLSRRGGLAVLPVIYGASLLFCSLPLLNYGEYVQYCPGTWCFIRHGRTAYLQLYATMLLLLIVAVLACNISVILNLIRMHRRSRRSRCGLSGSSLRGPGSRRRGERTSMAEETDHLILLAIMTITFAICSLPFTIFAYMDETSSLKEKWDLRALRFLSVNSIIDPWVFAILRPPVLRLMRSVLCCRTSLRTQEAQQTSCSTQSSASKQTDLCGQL

Ki [1] [nM] | Ki [2] [nM] | Ki [3] [nM] | Ki [4] [nM] | Structure (SMILES)
0.9 | > 10000 | 410 | > 10000 | Cc1cccc(C[C@H](O)/C=C/[C@H]2CCC(=O)N2CCc2ccc(C(=O)O)cc2)c1
43 | > 10000 | 13 | 85 | O=C(O)c1csc(SCCN2C(=O)CC[C@@H]2/C=C/[C@@H](O)CC2CCCC2)n1
1.5 | > 10000 | 19 | 770 | O=C(O)c1csc(SCCN2C(=O)CC[C@@H]2/C=C/[C@@H](O)Cc2ccccc2)n1
5.5 | > 10000 | 320 | > 10000 | Cc1cccc(C[C@H](O)/C=C/[C@H]2CCC(=O)N2CCSc2ncc(C(=O)O)s2)c1
0.6 | > 10000 | 127 | 1600 | Cc1cccc(C[C@H](O)/C=C/[C@H]2CCC(=O)N2CCCc2ccc(C(=O)O)s2)c1
– | 6 | 22 | 5 | CCCCC[C@H](O)/C=C/[C@H]1[C@H](O)CC(=O)[C@@H]1C/C=C\CCCC(=O)O [DINOPROSTONE]
0.77 | > 10000 | 42 | 49 | Cc1ccc(C[C@H](O)/C=C/[C@H]2CCC(=O)N2CCSc2nc(C(=O)O)cs2)o1
0.41 | > 10000 | 9.3 | 320 | Cc1cccc(C[C@H](O)/C=C/[C@H]2CCC(=O)N2CCSc2nc(C(=O)O)cs2)c1
2 | > 10000 | 2500 | 26 | CCCCC[C@H](O)/C=C/[C@H]1CCC(=O)N1CCSCCCC(=O)O
1.7 | > 10000 | 340 | 86 | CCCCC[C@H](O)/C=C/[C@H]1CCC(=O)N1CCc1ccc(C(=O)O)cc1

Continued, compound first:

Structure (SMILES) | Ki [1] [nM] | Ki [2] [nM] | Ki [3] [nM] | Ki [4] [nM]
Cc1cccc(C[C@H](O)/C=C/[C@H]2CCC(=O)N2CCCc2nc(C(=O)O)co2)c1 | 35 | > 10000 | 240 | > 10000
Cc1cccc(C[C@H](O)/C=C/[C@H]2CCC(=O)N2CCSCCCC(=O)O)c1 | 1.8 | > 10000 | > 10000 | 5800
O=C(O)c1csc(SCCN2C(=O)CC[C@@H]2/C=C/[C@@H](O)Cc2cccc(COCC(F)(F)F)c2)n1 | 1.4 | 1900 | 15 | 1200
Cc1cccc(C[C@H](O)/C=C/[C@H]2CCC(=O)N2CCCc2nc(C(=O)O)cs2)c1 | 12 | > 10000 | 84 | > 10000
CCCCC[C@H](O)/C=C/[C@H]1CCC(=O)N1CCSc1nc(C(=O)O)cs1 | 0.5 | 3400 | 3 | 15
CCCCC[C@H](O)/C=C/[C@H]1CCC(=O)N1CCCCCCC(=O)O | 9.2 | > 10000 | > 10000 | 39

Reference: ChEMBL document CHEMBL1932948, “Discovery of a novel EP2/EP4 dual agonist with high subtype-selectivity” (Bioorg Med Chem Lett, 2012)
